The test system of test [1] is HCV genotype 1a (H77 strain) replicon in HUH-7 cells. The test can be described thus: HCV replicon luciferase reporter assay, genotype 1a. The settings on record: Hepatitis C virus, Huh-7, 72 h, HCV genotype 1a replicon luciferase, 3 days incubation. Type of test: cell-based. The method in brief: (§1)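 Replicon inhibition for both genotypes was measured as Renilla luciferase signal (EnduRen, 7.5 μM final, 2 h) after 3-day, 37° C exposure of replicon-bearing HUH-7 cells in 4% FCS DMEM, 0.5% DMSO. The 1b construct carries S1179I; the 1a H77 construct carries P1496L and S2204I. Twenty-point, 3-fold dilutions were fitted four-parametrically for EC50, and CC50 was taken from multiplexed Cell Titer-Blue.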
Background: A replicon is a self-replicating genome or part of one, used to study replication in cells.

Test [2] has as its system HCV genotype 1b (Con1) replicon in HUH-7 cells. The test can be described thus: HCV replicon luciferase reporter assay, genotype 1b. The settings on record: Hepatitis C virus, Huh-7, 72 h, HCV genotype 1b replicon luciferase, 3 days incubation. Type of test: cell-based. The method in brief:
as §1

[3] abbreviates: GETYPE1A, read-out: LE_1a (EC50, range).
Setting [4] is: GETYPE1B, read-out: LE_1b (EC50, range).

Where two headings read alike, the source gives them in different places.

In general, EC50 refers to the concentration at which the effect is half-maximal. As for `CC[C@@H]1C[C@H](C)CC/C=C\[C@@H]2C[C@@]2(C(=O)NS(=O)(=O)C2CC2)NC(=O)[C@@H]2C[C@@H](Oc3nc4cc(OC(C)C)ccc4nc3C(F)(F)F)CN2C(=O)[C@H]1NC(=O)OC(C)(C)C(F)(F)F` [Compound 4338], the EC50 in test [1] (setting [3]) and in test [2] (setting [4]) was 1.01 to 5 nM throughout.

For `COc1cnc2ccc(O[C@@H]3C[C@H]4C(=O)N[C@]5(C(=O)NS(=O)(=O)C6(C)CC6)C[C@H]5/C=C\CC[C@@H](C)C[C@@H](C)[C@H](NC(=O)OC(C)(C)C(F)(F)F)C(=O)N4C3)cc2n1` [Compound 4339], the EC50 in test [1] (setting [3]) and in test [2] (setting [4]) was 0.1 to 0.5 nM each time.

Turning to `CC[C@@H]1C[C@H](C)CC/C=C\[C@@H]2C[C@@]2(C(=O)NS(=O)(=O)C2CC2)NC(=O)[C@@H]2C[C@@H](Oc3cnnc4cc(OC)ccc34)CN2C(=O)[C@H]1NC(=O)OC(C)(C)C` [Compound 4340, tert-butyl ((2R,6S,7R,9R,13aS,14aR,16aS,Z)-14a-((cyclopropylsulfonyl)carbamoyl)-7-ethyl-2-((7-methoxycinnolin-4-yl)oxy)-9-methyl-5,16-dioxo-1,2,3,5,6,7,8,9,10,11,13a,14,14a,15,16,16a-hexadecahydrocyclopropa[e]pyrrolo[1,2-a][1,4]diazacyclopentadecin-6-yl)carbamate], the EC50 is 5.01 to 35 nM in test [1] (read-out: LE_1a (EC50, range)) and 5.01 to 35 nM in test [2] (read-out: LE_1b (EC50, range)).

Regarding `CC[C@@H]1C[C@H](C)CC/C=C\[C@@H]2C[C@@]2(C(=O)NS(=O)(=O)C2(C)CC2)NC(=O)[C@@H]2C[C@@H](Oc3ncc(OC)c4ccc(F)cc34)CN2C(=O)[C@H]1NC(=O)N1CCN(C)CC1` [Compound 4341, (2R,6S,7R,9R,13aS,14aR,16aS,Z)-7-ethyl-2-((7-fluoro-4-methoxyisoquinolin-1-yl)oxy)-9-methyl-N-((1-methylcyclopropyl)sulfonyl)-6-(4-methylpiperazine-1-carboxamido)-5,16-dioxo-1,2,3,5,6,7,8,9,10,11,13a,14,14a,15,16,16a-hexadecahydrocyclopropa[e]pyrrolo[1,2-a][1,4]diazacyclopentadecine-14a-carboxamide], the EC50 in test [1] (read-out: LE_1a (EC50, range)) fell in the range of 1.01 to 5 nM; in test [2] (read-out: LE_1b (EC50, range)) it was 1.01 to 5 nM.

Turning to `CC[C@@H]1C[C@H](C)CC/C=C\[C@@H]2C[C@@]2(C(=O)NS(=O)(=O)C2CC2)NC(=O)[C@@H]2C[C@@H](Oc3ncc(C(N)=O)c4cc(OC)ccc34)CN2C(=O)[C@H]1NC(=O)OC(C)(C)C` [Compound 4342, tert-butyl ((2R,6S,7R,9R,13aS,14aR,16aS,Z)-2-((4-carbamoyl-6-methoxyisoquinolin-1-yl)oxy)-14a-((cyclopropylsulfonyl)carbamoyl)-7-ethyl-9-methyl-5,16-dioxo-1,2,3,5,6,7,8,9,10,11,13a,14,14a,15,16,16a-hexadecahydrocyclopropa[e]pyrrolo[1,2-a][1,4]diazacyclopentadecin-6-yl)carbamate], the EC50 lay within 5.01 to 35 nM in test [1] (read-out: LE_1a (EC50, range)) and 35 to 620 nM in test [2] (read-out: LE_1b (EC50, range)).

For the compound `CC[C@@H]1C[C@H](C)CC/C=C\[C@@H]2C[C@@]2(C(=O)NS(=O)(=O)C2(C)CC2)NC(=O)[C@@H]2C[C@@H](Oc3ncc(C(N)=O)c4cc(OC)ccc34)CN2C(=O)[C@H]1NC(=O)OC(C)(C)C` [Compound 4343, tert-butyl ((2R,6S,7R,9R,13aS,14aR,16aS,Z)-2-((4-carbamoyl-6-methoxyisoquinolin-1-yl)oxy)-7-ethyl-9-methyl-14a-(((1-methylcyclopropyl)sulfonyl)carbamoyl)-5,16-dioxo-1,2,3,5,6,7,8,9,10,11,13a,14,14a,15,16,16a-hexadecahydrocyclopropa[e]pyrrolo[1,2-a][1,4]diazacyclopentadecin-6-yl)carbamate], the EC50 in test [1] (read-out: LE_1a (EC50, range)) was 5.01 to 35 nM; in test [2] (read-out: LE_1b (EC50, range)), 5.01 to 35 nM.

As to `CC[C@@H]1C[C@H](C)CC/C=C\[C@@H]2C[C@@]2(C(=O)NS(=O)(=O)C2(C)CC2)NC(=O)[C@@H]2C[C@@H](Oc3nccc4cc(OC)c(F)cc34)CN2C(=O)[C@H]1NC(=O)N1CCC(F)(F)CC1` [Compound 4344, (2R,6S,7R,9R,13aS,14aR,16aS,Z)-6-(4,4-difluoropiperidine-1-carboxamido)-7-ethyl-2-((7-fluoro-6-methoxyisoquinolin-1-yl)oxy)-9-methyl-N-((1-methylcyclopropyl)sulfonyl)-5,16-dioxo-1,2,3,5,6,7,8,9,10,11,13a,14,14a,15,16,16a-hexadecahydrocyclopropa[e]pyrrolo[1,2-a][1,4]diazacyclopentadecine-14a-carboxamide], the EC50 in test [1] (read-out: LE_1a (EC50, range)) lay in the range of 1.01 to 5 nM; in test [2] (read-out: LE_1b (EC50, range)) it was 1.01 to 5 nM.

For `CC[C@@H]1C[C@H](C)CC/C=C\[C@@H]2C[C@@]2(C(=O)NS(=O)(=O)C2CC2)NC(=O)[C@@H]2C[C@@H](Oc3ncc(C(N)=O)c4cc(OC)ccc34)CN2C(=O)[C@H]1NC(=O)OC(C)(C)C(F)(F)F` [Compound 4345], the EC50 in test [1] (setting [3]) fell in the range of 5.01 to 35 nM; in test [2] (setting [4]), 35 to 620 nM.

`CCOc1ccc2nc(C(F)(F)F)c(O[C@@H]3C[C@H]4C(=O)N[C@]5(C(=O)NS(=O)(=O)C6(C)CC6)C[C@H]5/C=C\CC[C@@H](C)C[C@@H](C)[C@H](NC(=O)OC(C)(C)C)C(=O)N4C3)nc2c1` [Compound 4346, tert-butyl ((2R,6S,7R,9R,13aS,14aR,16aS,Z)-2-((7-ethoxy-3-(trifluoromethyl)quinoxalin-2-yl)oxy)-7,9-dimethyl-14a-(((1-methylcyclopropyl)sulfonyl)carbamoyl)-5,16-dioxo-1,2,3,5,6,7,8,9,10,11,13a,14,14a,15,16,16a-hexadecahydrocyclopropa[e]pyrrolo[1,2-a][1,4]diazacyclopentadecin-6-yl)carbamate]: the EC50 was 0.51 to 1 nM in test [1] (read-out: LE_1a (EC50, range)) and 0.1 to 0.5 nM in test [2] (read-out: LE_1b (EC50, range)).

In the case of `CCOc1ccc2nc(C(F)(F)F)c(O[C@@H]3C[C@H]4C(=O)N[C@]5(C(=O)NS(=O)(=O)C6(C)CC6)C[C@H]5/C=C\CC[C@H](C)C[C@@H](C)[C@H](NC(=O)OC(C)(C)C)C(=O)N4C3)nc2c1` [Compound 4347, tert-butyl ((2R,6S,7R,9S,13aS,14aR,16aS,Z)-2-((7-ethoxy-3-(trifluoromethyl)quinoxalin-2-yl)oxy)-7,9-dimethyl-14a-(((1-methylcyclopropyl)sulfonyl)carbamoyl)-5,16-dioxo-1,2,3,5,6,7,8,9,10,11,13a,14,14a,15,16,16a-hexadecahydrocyclopropa[e]pyrrolo[1,2-a][1,4]diazacyclopentadecin-6-yl)carbamate], the EC50 in test [1] (read-out: LE_1a (EC50, range)) was 5.01 to 35 nM; in test [2] (read-out: LE_1b (EC50, range)), 1.01 to 5 nM.

Take `CCOc1ccc2nc(C(F)(F)F)c(O[C@@H]3C[C@H]4C(=O)N[C@]5(C(=O)NS(=O)(=O)C6(C)CC6)C[C@H]5/C=C\CC[C@@H](C)C[C@@H](C)[C@H](NC(=O)OC(C)(C)C(F)(F)F)C(=O)N4C3)nc2c1` [Compound 4348]: the concentration giving a half-maximal response (EC50) in test [1] (setting [3]) was in the range of 0.51 to 1 nM; in test [2] (setting [4]), 0.1 to 0.5 nM.

For `CCOc1ccc2nc(C(F)(F)F)c(O[C@@H]3C[C@H]4C(=O)N[C@]5(C(=O)NS(=O)(=O)C6(C)CC6)C[C@H]5/C=C\CC[C@H](C)C[C@@H](C)[C@H](NC(=O)OC(C)(C)C(F)(F)F)C(=O)N4C3)nc2c1` [Compound 4349], the EC50 in test [1] (setting [3]) was in the range of 5.01 to 35 nM; in test [2] (setting [4]), 1.01 to 5 nM.

Turning to `CC[C@@H]1C[C@H](C)CC/C=C\[C@@H]2C[C@@]2(C(=O)NS(=O)(=O)C2(C)CC2)NC(=O)[C@@H]2C[C@@H](Oc3nc4cc(OC(C)C)ccc4nc3C(F)(F)F)CN2C(=O)[C@H]1NC(=O)OC(C)(C)C(F)(F)F` [Compound 4350], the EC50 was 1.49 nM in test [1] (GETYPE1A, read-out: LE_1a (EC50)); 1.01 to 5 nM in test [1] (setting [3]); 0.88 nM in test [2] (GETYPE1B, read-out: LE_1b (EC50)); 0.51 to 1 nM in test [2] (setting [4]).

Take `COc1cc2nc(C(F)(F)F)c(OC)nc2cc1O[C@@H]1C[C@H]2C(=O)N[C@]3(C(=O)NS(=O)(=O)C4(C)CC4)C[C@H]3/C=C\CC[C@@H](C)C[C@@H](C)[C@H](NC(=O)OC(C)(C)C)C(=O)N2C1` [Compound 4351, tert-butyl ((2R,6S,7R,9R,13aS,14aR,16aS,Z)-2-((3,7-dimethoxy-2-(trifluoromethyl)quinoxalin-6-yl)oxy)-7,9-dimethyl-14a-(((1-methylcyclopropyl)sulfonyl)carbamoyl)-5,16-dioxo-1,2,3,5,6,7,8,9,10,11,13a,14,14a,15,16,16a-hexadecahydrocyclopropa[e]pyrrolo[1,2-a][1,4]diazacyclopentadecin-6-yl)carbamate]: the EC50 in test [1] (read-out: LE_1a (EC50, range)) lay in the range of 5.01 to 35 nM; in test [2] (read-out: LE_1b (EC50, range)), 1.01 to 5 nM.

As to `COc1cc2nc(C(F)(F)F)c(OC)nc2cc1O[C@@H]1C[C@H]2C(=O)N[C@]3(C(=O)NS(=O)(=O)C4(C)CC4)C[C@H]3/C=C\CC[C@H](C)C[C@@H](C)[C@H](NC(=O)OC(C)(C)C)C(=O)N2C1` [Compound 4352, tert-butyl ((2R,6S,7R,9S,13aS,14aR,16aS,Z)-2-((3,7-dimethoxy-2-(trifluoromethyl)quinoxalin-6-yl)oxy)-7,9-dimethyl-14a-(((1-methylcyclopropyl)sulfonyl)carbamoyl)-5,16-dioxo-1,2,3,5,6,7,8,9,10,11,13a,14,14a,15,16,16a-hexadecahydrocyclopropa[e]pyrrolo[1,2-a][1,4]diazacyclopentadecin-6-yl)carbamate], the EC50 was 35 to 620 nM in test [1] (read-out: LE_1a (EC50, range)) and 35 to 620 nM in test [2] (read-out: LE_1b (EC50, range)).

Regarding `COc1cc2nc(C(F)(F)F)c(OC)nc2cc1O[C@@H]1C[C@H]2C(=O)N[C@]3(C(=O)NS(=O)(=O)C4(C)CC4)C[C@H]3/C=C\CC[C@@H](C)C[C@@H](C)[C@H](NC(=O)OC(C)(C)C(F)(F)F)C(=O)N2C1` [Compound 4353], the EC50 in test [1] (setting [3]) lay within 5.01 to 35 nM; in test [2] (setting [4]) it was 1.01 to 5 nM.

Values taken from patent publication US9499550B2 (BRISTOL-MYERS SQUIBB COMPANY, priority 2012, dated 2016).
